Legend:
B. caballi (USDA strain) = test: in vitro growth inhibition assay (SYBR Green I fluorescence), single drug and 1:1 combination; type: cell-based, Babesia caballi; conditions: for IC50: Babesia caballi, 96 h, B. caballi in vitro culture, 4 days
Experimental: (§1) A microaerophilic stationary-phase culture system was used to maintain Babesia parasite cultures for a long time. Briefly, B. caballi (USDA strain) was grown using equine red blood cells (RBCs) in GIT medium supplemented with 40% equine serum. Theileria equi (USDA strain) was grown in equine RBCs in Medium 199 (M199; Sigma-Aldrich, Tokyo) supplemented with 40% equine serum, and hypoxanthine (MP Biomedicals, Santa Ana, CA, USA) at a final concentration of 13.6 μg/ml was used as a vital supplement. Babesia bovis (Texas strain) and B. bigemina (Argentina strain) were grown in bovine RBCs in M199 medium supplemented with 40% bovine serum. Meanwhile, B. divergens (Germany strain) was grown in bovine RBCs in medium RPMI 1640 (Sigma-Aldrich, Tokyo) supplemented with 40% bovine serum. All media included 60 U/ml penicillin G, 60 μg/ml streptomycin and 0.15 μg/ml amphotericin B (Sigma-Aldrich, St. Louis, MO, USA) to prevent bacterial contamination. The cultures were incubated at 37 °C in a humidified chamber with an atmosphere of 5% CO2, 5% O2 and 90% N2. Babesia microti (Munich strain) was recovered from − 80 °C stock, intraperitoneally injected in two 8-week old female BALB/c mice (Clea Japan, Tokyo, Japan), and the parasitemia was monitored every 2 days. The mice were euthanized using an anesthesia system containing isoflurane after parasitemia reached approximately 30%, and blood was collected by cardiac puncture to initiate the in vivo experiment. The animal experiment was conducted in accordance with the Regulations for Animal Experiments of Obihiro University of Agriculture and Veterinary Medicine, Japan (animal experiment accession number: 290168).
(§2) Assays were performed in accordance with the previously described protocol. Briefly, B. bovis, B. bigemina, B. divergens, B. caballi and T. equi cultures were harvested and adjusted to 1% parasitemia with fresh RBCs to start the inhibition assay. The assays were carried out using 96-well microtiter plates where only the 60 inner wells were used, while the peripheral wells were filled with sterile distillate water to reduce evaporation during incubation. In five 96-well plates, a volume of 2.5 µl each of B. bigemina- and B. bovis-iRBCs and 5 µl each of B. divergens-, B. caballi- and T. equi-iRBCs were added to each well in triplicate and mixed with a culture medium containing the drug concentrations to a total volume of 100 µl. Various concentrations of EA, β-CD EA, APSP EA, DA, CF and AQ were dissolved in a culture medium using two-fold dilution. Wells containing DMSO at a final concentration of 0.4% and iRBCs were used as a positive control, while wells with non-infected RBCs and culture medium were used as a negative control. Additionally, a drug combination assay was performed in parallel with the single drug assay at a constant ratio of 1:1, as described previously. […] The plates were incubated in a humidified incubator with 5% CO2, 5% O2 and 90% N2 for 4 days without changing the medium. On day 4, 100 µl of a lysis buffer containing 2 × SG1 was added to each well. The plates were wrapped with aluminum foil to avoid direct light exposure and incubated at room temperature. After 6 h, fluorescence values were measured using a fluorescence spectrophotometer (Fluoroskan Ascent; Thermo LabSystems, Oceanside, CA, USA) with excitation and emission wavelengths of 485 and 518 nm, respectively. The fluorescence data were subtracted from the negative control and used to calculate the IC50. […]

[1] = system: human foreskin fibroblast (HFF) cell line; test: cytotoxicity assay (CCK-8); type: cell-based; conditions: for EC50: Homo sapiens, HFF cells, 24 h exposure, CCK-8
Experimental: (§3) The MDBK cell line was maintained in 75 cm^2 culture flasks with Minimum Essential Medium Eagle (MEM; Gibco, Grand Island, NY, USA), while Dulbecco’s Modified Eagle’s Medium (DMEM; […] Each medium was supplemented with 10% fetal bovine serum, 0.5% penicillin/streptomycin (Gibco), and an additional 1% glutamine. Every 3 to 4 days, the medium was changed, and the cells were incubated until approximately 80% confluent. The cells were free from mycoplasma contamination after being checked by staining with 4,6-diamidino-2-phenylindole dihydrochloride (DAPI; Sigma-Aldrich, St. Louis). The cell detachment from the culture flask was done using TrypLE^TM Express (Gibco) after washing two times with Dulbecco’s phosphate-buffered saline (DPBS). Subsequently, viable cells were counted using a Neubauer Improved C-Chip (NanoEnTek Inc., Seoul, Korea) after staining with 0.4% trypan blue solution. The drug-exposure viability assay was performed in accordance with the recommendation for the Cell Counting Kit-8 (CCK-8; Dojindo, Kumamoto, Japan). Briefly, in a 96-well plate, 100 µl of cells at a density of 5 × 10^4 cells/ml were seeded per well and allowed to attach to the plate for 24 h at 37 °C in a humidified incubator with 5% CO2. Ten microliters of drug diluted two-fold were added to each well to a final concentration of 0.781 to 800 µM in triplicate. Wells with only a culture medium were used as blanks, while wells containing cells and a medium with 0.5% DMSO were used as positive controls. Drug exposure lasted for 24 h. After 24 h, 10 µl of CCK-8 was added, and the plate was further incubated for 3 h. Absorbance was measured at 450 nm using a microplate reader.

[2] = system: mouse embryonic fibroblast (NIH/3T3) cell line; test: cytotoxicity assay (CCK-8); type: cell-based; conditions: for EC50: Mus musculus, NIH3T3, NIH/3T3 cells, 24 h exposure, CCK-8
Experimental: as §3

[3] = system: Madin-Darby bovine kidney (MDBK) cell line; test: cytotoxicity assay (CCK-8); type: cell-based; conditions: for EC50: Bos taurus, 24 h, MDBK cells, 24 h exposure, CCK-8
Experimental: as §3

[4] = system: B. bigemina (Argentina strain); test: in vitro growth inhibition assay (SYBR Green I fluorescence), single drug and 1:1 combination; type: cell-based, Babesia bigemina; conditions: for IC50: Babesia bigemina, 96 h, B. bigemina in vitro culture, 4 days
Experimental: as §1, §2

[5] = system: B. divergens (Germany strain); test: as above; type: cell-based, Babesia divergens; conditions: for IC50: Babesia divergens, 96 h, B. divergens in vitro culture, 4 days
Experimental: as §1, §2

[6] = system: Babesia microti (Munich strain); test: in vivo growth inhibition and drug combination assays in B. microti-infected BALB/c mice; conditions: for peak parasitemia level: 5 days
Experimental: as §1
In vivo growth inhibition assays of EA, β-CD EA and APSP EA were performed in B. microti-infected BALB/c mice in accordance with the previous protocol in two separate trials. […] The mice in groups 2–8 were intraperitoneally (i.p.) injected with 0.5 ml of inoculum (1 × 10^7 B. microti-iRBCs). Group 1 was left uninfected and untreated as a negative control. When the average parasitemia in all mice reached 1%, drug treatment was initiated for 5 consecutive days. […] DA at a concentration of 25 mg/kg body weight (BW) was administrated i.p. to the third group as a reference drug control.

[7] = system: Theileria equi (USDA strain); test: in vitro growth inhibition assay (SYBR Green I fluorescence), single drug and 1:1 combination; type: cell-based; conditions: for IC50: Theileria equi, 96 h, T. equi in vitro culture, 4 days
Experimental: as §1
(§4) Assays were performed in accordance with the previously described protocol. Briefly, B. bovis, B. bigemina, B. divergens, B. caballi and T. equi cultures were harvested and adjusted to 1% parasitemia with fresh RBCs to start the inhibition assay. The assays were carried out using 96-well microtiter plates where only the 60 inner wells were used, while the peripheral wells were filled with sterile distillate water to reduce evaporation during incubation. In five 96-well plates, a volume of 2.5 µl each of B. bigemina- and B. bovis-iRBCs and 5 µl each of B. divergens-, B. caballi- and T. equi-iRBCs were added to each well in triplicate and mixed with a culture medium containing the drug concentrations to a total volume of 100 µl. Various concentrations of EA, β-CD EA, APSP EA, DA, CF and AQ were dissolved in a culture medium using two-fold dilution. Wells containing DMSO at a final concentration of 0.4% and iRBCs were used as a positive control, while wells with non-infected RBCs and culture medium were used as a negative control. Additionally, a drug combination assay was performed in parallel with the single drug assay at a constant ratio of 1:1, as described previously. […] The plates were incubated in a humidified incubator with 5% CO2, 5% O2 and 90% N2 for 4 days without changing the medium. On day 4, 100 µl of a lysis buffer containing 2 × SG1 was added to each well. The plates were wrapped with aluminum foil to avoid direct light exposure and incubated at room temperature. After 6 h, fluorescence values were measured using a fluorescence spectrophotometer (Fluoroskan Ascent; Thermo LabSystems, Oceanside, CA, USA) with excitation and emission wavelengths of 485 and 518 nm, respectively. The fluorescence data were subtracted from the negative control and used to calculate the IC50. To calculate the degree of association, the growth-inhibition values obtained were entered into CompuSyn software, based on the combination index (CI) values. […] The experiments were repeated three times.

[8] = system: Babesia bovis (Texas strain); test: as above; type: cell-based; conditions: for IC50: Babesia bovis, in Bos taurus, 96 h, B. bovis in vitro culture, 4 days
Experimental: as §1, §4

P. falciparum = system: P. falciparum; design: method as in PMID 19015354; conditions: cited from earlier work
L. major = system: L. major; design: method as in PMID 28643086; conditions: cited from earlier work
[9] = EC50 NIH/3T3 / IC50 B. bigemina
[10] = EC50 NIH/3T3 / IC50 B. divergens

CC(C)/N=c1\cc2n(-c3ccc(Cl)cc3)c3ccccc3nc-2cc1Nc1ccc(Cl)cc1 [CF, clofazimine]
IC50 (B. caballi (USDA strain)): 7.95 ± 1.8 µM
Selective indices HFF ([1]; EC50 HFF / IC50 B. bigemina): ˃ 17.5
Selective indices HFF ([1]; EC50 HFF / IC50 B. bovis): ˃ 12.1
Selective indices HFF ([1]; EC50 HFF / IC50 B. caballi): ˃ 12.6
Selective indices HFF ([1]; EC50 HFF / IC50 B. divergens): ˃ 7.2
Selective indices HFF ([1]; EC50 HFF / IC50 T. equi): ˃ 34.7
EC50 [1]: > 100 µM
Selective indices NIH/3T3 [2, 9]: ˃ 17.5
Selective indices NIH/3T3 ([2]; EC50 NIH/3T3 / IC50 B. bovis): ˃ 12.1
Selective indices NIH/3T3 ([2]; EC50 NIH/3T3 / IC50 B. caballi): ˃ 12.6
Selective indices NIH/3T3 [2, 10]: ˃ 7.2
Selective indices NIH/3T3 ([2]; EC50 NIH/3T3 / IC50 T. equi): ˃ 34.7
EC50 [2]: > 100 µM
EC50 ([3]; MDBK): 34 ± 3.4 µM
Selective indices MDBK ([3]; EC50 MDBK / IC50 B. bigemina): 6.1
Selective indices MDBK ([3]; EC50 MDBK / IC50 B. bovis): 4.2
Selective indices MDBK ([3]; EC50 MDBK / IC50 B. caballi): 4.4
Selective indices MDBK ([3]; EC50 MDBK / IC50 B. divergens): 2.5
IC50 [4]: 5.73 ± 1.9 µM
IC50 [5]: 13.8 ± 4.3 µM
day p.i. from which parasitemia was undetectable by microscopic examination ([6]; second assay, 20 mg/kg CF): 16 day p.i.
peak parasitemia level ([6]; second assay, 20 mg/kg CF oral, DDW control 58.3%): 4.9%
IC50 [7]: 2.88 ± 0.9 µM
IC50 [8]: 8.24 ± 1.7 µM

O=c1oc2c(O)c(O)cc3c(=O)oc4c(O)c(O)cc1c4c23 [EA, Ellagic acid]
concentration that significantly inhibited the growth (B. caballi (USDA strain); B. caballi, t-test vs control): 0.125 µM
IC50 (B. caballi (USDA strain)): 3.29 ± 0.42 µM
Selective indices HFF ([1]; EC50 HFF / IC50 B. bigemina): > 101.3
Selective indices HFF ([1]; EC50 HFF / IC50 B. bovis): > 83.3
Selective indices HFF ([1]; EC50 HFF / IC50 B. divergens): > 148.1
Selective indices HFF ([1]; EC50 HFF / IC50 T. equi): > 106.7
EC50 [1]: > 800 µM
Selective indices NIH/3T3 [2, 9]: > 101.3
Selective indices NIH/3T3 ([2]; EC50 NIH/3T3 / IC50 B. bovis): > 83.3
Selective indices NIH/3T3 [2, 10]: > 148.1
Selective indices NIH/3T3 ([2]; EC50 NIH/3T3 / IC50 T. equi): > 106.7
EC50 [2]: > 800 µM
inhibition of cell viability ([2]; NIH/3T3, 800 µM): did not show any inhibition
EC50 ([3]; MDBK): > 800 µM
Selective indices MDBK ([3]; EC50 MDBK / IC50 B. bigemina): > 101.3
Selective indices MDBK ([3]; EC50 MDBK / IC50 B. bovis): > 83.3
Selective indices MDBK ([3]; EC50 MDBK / IC50 B. divergens): > 148.1
Selective indices MDBK ([3]; EC50 MDBK / IC50 T. equi): > 106.7
inhibition of cell viability ([3]; MDBK, 800 µM): did not show any inhibition
concentration that significantly inhibited the growth ([4]; B. bigemina, t-test vs control): 0.078 µM
IC50 [4]: 7.87 ± 5.8 µM
IC50 (P. falciparum): 0.33 µM
concentration that significantly inhibited the growth ([5]; B. divergens, t-test vs control): 0.125 µM
IC50 [5]: 5.41 ± 2.8 µM
IC50 (L. major): 9.8 μg/ml^e
peak parasitemia level ([6]; first assay, 35 mg/kg EA i.p., peak on day 8, DDW control 57.7%): 29.5%
concentration that significantly inhibited the growth ([7]; T. equi, t-test vs control): 0.125 µM
IC50 [7]: 7.46 ± 0.6 µM
concentration that significantly inhibited the growth ([8]; B. bovis, t-test vs control): 0.078 µM
IC50 [8]: 9.58 ± 1.47 µM

From paper PMC6537213, “Ellagic acid microspheres restrict the growth of Babesia and Theileria in vitro and Babesia microti in vivo” (Parasites & Vectors, 2019)
